Laboratory results taken from patent US20170204092A1, “4,5-DIHYDROISOXAZOLE DERIVATIVES AS NAMPT INHIBITORS” (AURIGENE DISCOVERY TECHNOLOGIES LIMITED, priority 2014, published 2017).
Like-named read-outs stand apart in the source and are kept apart here.

Key:
MiaPaCa-2 cells = assay: Cytotoxicity assay in MiaPaCa-2 (XTT, 72 h); assay type: cell-based; conditions: for inhibition at 1 µM / inhibition at 10 µM / Cell cytotoxicity assay (% Inhibition at 1 μM) / Cell cytotoxicity assay (% Inhibition at 10 μM): DMSO control = 0% inhibition; for inhibition at 1 µM: read-out: Cell cytotoxicity assay (% Inhibition at 1 μM); for inhibition at 10 µM: read-out: Cell cytotoxicity assay (% Inhibition at 10 μM); for IC50: XTT, read-out: Cell cytotoxicity assay IC50 in range
Protocol: MiaPaCa-2 Cells (ATCC) were seeded in 96 well plates (Costar clear flat bottom) at a density of 3000 cells/well and allowed to settle overnight. Test compounds were dissolved in dimethyl sulphoxide (DMSO-Sigma Aldrich, D2650) and incubated with MiaPaCa-2 cells for 72 h. Post 72 h, 50 μl XTT (1 mg/mL; Invitrogen, X 6493) and PMS ([…]; Sigma Aldrich, P9625) reagents were added to the cells in 100 μl of cDMEM (Sigma Aldrich-D5648)+10% FBS (Hyclone-5430088-03)+1×Pen Strep (Sigma Aldrich-P0781). After 1 hour incubation with XTT and PMS absorbance was monitored with Spectramax M3 (Molecular Device). Percentage inhibition of proliferation at 10 μM and 1 μM concentrations was calculated by considering DMSO control as 0% inhibition. IC50 values were plotted using Graph pad prism software (Graph pad Inc, La Jola, Calif., USA).

[1] = target: T1, recombinant NAMPT wild type protein (Homo sapiens, UniProt P43490); assay: NAMPT fluorescence assay; assay type: biochemical; conditions: 50 ng NAMPT, 2 μM Nam, 10 point dose response; read-out: Fluorescence assay IC50 in range
T1 construct: made in house; host or cells: E. coli
T1 sequence (P43490 whole entry): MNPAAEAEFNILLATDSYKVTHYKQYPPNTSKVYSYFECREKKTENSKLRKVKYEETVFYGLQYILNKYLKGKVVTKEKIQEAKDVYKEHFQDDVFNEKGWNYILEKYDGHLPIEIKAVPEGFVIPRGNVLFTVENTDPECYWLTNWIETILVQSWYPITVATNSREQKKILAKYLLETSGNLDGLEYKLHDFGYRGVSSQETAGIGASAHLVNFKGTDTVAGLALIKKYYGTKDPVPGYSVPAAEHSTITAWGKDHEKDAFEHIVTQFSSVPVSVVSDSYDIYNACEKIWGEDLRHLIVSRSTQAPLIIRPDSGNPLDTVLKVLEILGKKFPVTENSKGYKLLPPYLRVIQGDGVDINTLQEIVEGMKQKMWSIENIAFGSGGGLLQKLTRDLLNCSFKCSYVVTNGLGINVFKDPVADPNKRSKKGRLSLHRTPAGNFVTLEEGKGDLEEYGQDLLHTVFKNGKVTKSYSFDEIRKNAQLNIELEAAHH
Protocol: The enzymatic assay was standardized using in-house recombinant NAMPT wild type protein from E. coli expression & NAM (Cat #47865-U) as a substrate. The product NMN formed after enzymatic reaction was derivatized to a fluorescent derivative through sequentially reacting with acetophenone/KOH and formic acid. The derivatized fluorescent NMN derivative was detected at 382 nm excitation wavelength and a 445 nm emission wavelength. […] The fluorescence was measured (Excitation at 382 nm & Emission at 445 nm) using Victor^3 V fluorimeter. The data is calculated using the RFU values. The final concentration of DMSO was 2% in the assay. Each individual IC50 was determined using 10 point dose response curve generated by GraphPad Prism software Version 4 (San Diego, Calif., USA) using nonlinear regression curve fit for sigmoidal dose response (variable slope).

SMILES | IC50 [1] [nM] | inhibition at 1 µM (MiaPaCa-2 cells; Homo sapiens, MIA PaCa-2, 72 h) [%] | inhibition at 10 µM (MiaPaCa-2 cells; Homo sapiens, MIA PaCa-2, 72 h) [%] | IC50 (MiaPaCa-2 cells; Homo sapiens, MIA PaCa-2, 72 h) [nM] | Cell cytotoxicity assay (% Inhibition at 1 μM) (MiaPaCa-2 cells) [%] | IC50 (MiaPaCa-2 cells) [nM] | Cell cytotoxicity assay (% Inhibition at 10 μM) (MiaPaCa-2 cells) [%]
O=C(NCC1=NOC(COc2cc(Cl)cnc2-c2ccc(F)nc2)C1)c1ccc2nccn2c1 (racemic) [Example 14, N-((5-(((5-chloro-6′-fluoro-[2,3′-bipyridin]-3-yl)oxy)methyl)-4,5-dihydro-isoxazol-3-yl)methyl)imidazo[1,2-a]pyridine-6-carboxamide] | 10 to 25 | 95 | 95 | < 50 | – | – | –
Cc1cc(NC(=O)NCC2=NOC(COc3cccnc3-c3ccc(F)nc3)C2)ccn1 (racemic) [Example 16, 1-((5-(((6′-fluoro-[2,3′-bipyridin]-3-yl)oxy)methyl)-4,5-dihydroisoxazol-3-yl)methyl)-3-(2-methylpyridin-4-yl)urea] | < 10 | 89 | 89 | 50 to 250 | – | – | –
O=C(NCC1=NOC(COc2cccnc2-c2ccc(F)nc2)C1)Nc1ccncc1 (racemic) [Example 17, 1-((5-(((6′-fluoro-[2,3′-bipyridin]-3-yl)oxy)methyl)-4,5-dihydroisoxazol-3-yl)methyl)-3-(pyridin-4-yl)urea] | < 10 | 90 | 89 | < 50 | – | – | –
O=C(NCC1=NOC(COc2cccnc2-c2ccc(F)nc2)C1)Nc1ccnnc1 (racemic) [Example 18, 1-((5-(((6′-fluoro-[2,3′-bipyridin]-3-yl)oxy)methyl)-4,5-dihydroisoxazol-3-yl)methyl)-3-(pyridazin-4-yl)urea] | > 25 | 90 | 89 | 50 to 250 | – | – | –
Cc1cc(NC(=O)NCC2=NOC(COc3cccnc3-c3cnn(C)c3)C2)ccn1 (racemic) [Example 19, 1-((5-(((2-(1-methyl-1H-pyrazol-4-yl)pyridin-3-yl)oxy)methyl)-4,5-dihydroisoxazol-3-yl)methyl)-3-(2-methylpyridin-4-yl)urea] | 10 to 25 | 17 | 82 | > 250 | – | – | –
O=C(NCC1=NOC(COc2cccnc2-c2ccc(F)nc2)C1)c1ccc2nccn2c1 (single isomer, unassigned) [Example 4a, N-((5-(((6′-fluoro-[2,3′-bipyridin]-3-yl)oxy)methyl)-4,5-dihydroisoxazol-3-yl)methyl)imidazo[1,2-a]pyridine-6-carboxamide] | < 10 | – | 83 | – | 8 | > 250 | –
O=C(NCC1=NOC(COc2cccnc2-c2ccc(F)nc2)C1)c1ccc2nccn2c1 (single isomer, unassigned) [Example 4b, N-((5-(((6′-fluoro-[2,3′-bipyridin]-3-yl)oxy)methyl)-4,5-dihydroisoxazol-3-yl)methyl)imidazo[1,2-a]pyridine-6-carboxamide] | < 10 | – | – | – | 95 | < 50 | 94
O=C(NCC1=NOC(COc2cccnc2-c2cccnc2)C1)c1ccc2nccn2c1 (single isomer, unassigned) [Example 7a, N-((5-(([2,3′-bipyridin]-3-yloxy)methyl)-4,5-dihydroisoxazol-3-yl)methyl)-imidazo[1,2-a]pyridine-6-carboxamide] | < 10 | – | – | – | – | < 50 | –
O=C(NCC1=NOC(COc2cccnc2-c2ccc(Cl)nc2)C1)c1ccc2nccn2c1 (single isomer, unassigned) [Example 8b, N-((5-(((6′-chloro-[2,3′-bipyridin]-3-yl)oxy)methyl)-4,5-dihydroisoxazol-3-yl)methyl)imidazo[1,2-a]pyridine-6-carboxamide] | > 25 | – | – | – | 92 | 50 to 250 | 94
O=C(NCC1=NOC(COc2cc(F)cnc2-c2ccc(F)nc2)C1)c1ccc2nccn2c1 (single isomer, unassigned) [Example 9a, N-((5-(((5,6′-difluoro-[2,3′-bipyridin]-3-yl)oxy)methyl)-4,5-dihydroisoxazol-3-yl)methyl)imidazo[1,2-a]pyridine-6-carboxamide] | < 10 | – | 90 | – | 12 | > 250 | –
O=C(NCC1=NOC(COc2cc(F)cnc2-c2ccc(F)nc2)C1)c1ccc2nccn2c1 (single isomer, unassigned) [Example 9b, N-((5-(((5,6′-difluoro-[2,3′-bipyridin]-3-yl)oxy)methyl)-4,5-dihydroisoxazol-3-yl)methyl)imidazo[1,2-a]pyridine-6-carboxamide] | 10 to 25 | – | – | – | 95 | < 50 | 95

Continued, in another order:

IC50 [1] [nM] | SMILES | inhibition at 1 µM (MiaPaCa-2 cells; Homo sapiens, MIA PaCa-2, 72 h) [%] | inhibition at 10 µM (MiaPaCa-2 cells; Homo sapiens, MIA PaCa-2, 72 h) [%] | IC50 (MiaPaCa-2 cells; Homo sapiens, MIA PaCa-2, 72 h) [nM] | Cell cytotoxicity assay (% Inhibition at 1 μM) (MiaPaCa-2 cells) [%] | IC50 (MiaPaCa-2 cells) [nM] | Cell cytotoxicity assay (% Inhibition at 10 μM) (MiaPaCa-2 cells) [%]
10 to 25 | Cc1cnc(-c2ccc(F)nc2)c(OCC2CC(CNC(=O)c3ccc4nccn4c3)=NO2)c1 (single isomer, unassigned) [Example 11a, N-((5-(((6′-fluoro-5-methyl-[2,3′-bipyridin]-3-yl)oxy)methyl)-4,5-dihydroisoxazol-3-yl)methyl)imidazo[1,2-a]pyridine-6-carboxamide] | 88 | 100 | – | – | > 250 | –
10 to 25 | Cc1cnc(-c2ccc(F)nc2)c(OCC2CC(CNC(=O)c3ccc4nccn4c3)=NO2)c1 (single isomer, unassigned) [Example 11b, N-((5-(((6′-fluoro-5-methyl-[2,3′-bipyridin]-3-yl)oxy)methyl)-4,5-dihydroisoxazol-3-yl)methyl)imidazo[1,2-a]pyridine-6-carboxamide] | – | – | – | 100 | < 50 | 98
10 to 25 | Cc1ccc(OCC2CC(CNC(=O)c3ccc4nccn4c3)=NO2)c(-c2ccc(F)nc2)n1 (single isomer, unassigned) [Example 12a, N-((5-(((6′-fluoro-6-methyl-[2,3′-bipyridin]-3-yl)oxy)methyl)-4,5-dihydroisoxazol-3-yl)methyl)imidazo[1,2-a]pyridine-6-carboxamide] | – | 96 | – | 45 | > 250 | –
10 to 25 | Cc1ccc(OCC2CC(CNC(=O)c3ccc4nccn4c3)=NO2)c(-c2ccc(F)nc2)n1 (single isomer, unassigned) [Example 12b, N-((5-(((6′-fluoro-6-methyl-[2,3′-bipyridin]-3-yl)oxy)methyl)-4,5-dihydroisoxazol-3-yl)methyl)imidazo[1,2-a]pyridine-6-carboxamide] | – | – | – | 100 | < 50 | 100
> 25 | O=C(NCC1=NOC(COc2cc(Cl)cnc2-c2cccnc2)C1)c1ccc2nccn2c1 (single isomer, unassigned) [Example 13a, N-((5-(((5-chloro-[2,3′-bipyridin]-3-yl)oxy)methyl)-4,5-dihydroisoxazol-3-yl)methyl)imidazo[1,2-a]pyridine-6-carboxamide] | – | 93 | – | 20 | > 250 | –
10 to 25 | O=C(NCC1=NOC(COc2cc(Cl)cnc2-c2cccnc2)C1)c1ccc2nccn2c1 (single isomer, unassigned) [Example 13b, N-((5-(((5-chloro-[2,3′-bipyridin]-3-yl)oxy)methyl)-4,5-dihydroisoxazol-3-yl)methyl)imidazo[1,2-a]pyridine-6-carboxamide] | – | – | – | 100 | < 50 | 100
